Assays:
human B1R = molecular target: T1, human B1R (Homo sapiens, UniProt P46663); experiment: Functional investigation on the bradykinin 1 receptor (B1R), cell-based fluorescent calcium-mobilization assay (FLIPR/Novostar), human; settings: 10 μM test substance; CHO K1 cells stably transfected with human B1R gene; agonist Lys-Des-Arg9-bradykinin at EC80; % inhibition compared with maximum achievable inhibition; read-out: B1R antagonism, human [10 μM] % inhibition
T1 construct: expressed in transfected cells; host or cells: CHO K1 cells
T1 sequence (P46663 1-353): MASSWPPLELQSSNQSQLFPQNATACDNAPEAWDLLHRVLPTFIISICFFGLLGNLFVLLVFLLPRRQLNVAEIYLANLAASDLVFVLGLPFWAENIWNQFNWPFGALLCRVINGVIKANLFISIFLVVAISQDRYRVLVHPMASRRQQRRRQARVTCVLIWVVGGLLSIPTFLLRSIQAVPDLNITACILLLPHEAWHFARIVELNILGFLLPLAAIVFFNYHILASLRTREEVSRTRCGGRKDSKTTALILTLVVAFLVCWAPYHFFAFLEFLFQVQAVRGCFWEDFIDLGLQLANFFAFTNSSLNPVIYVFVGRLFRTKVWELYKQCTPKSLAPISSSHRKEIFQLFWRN
Procedure: (§1) The agonistic or antagonistic action of substances can be quantified on the bradykinin 1 receptor (B1R) of the human and rat species with ectopically expressing cell lines (CHO K1 cells) and with the aid of a Ca^2+-sensitive dyestuff (Fluo-4) in a fluorescent imaging plate reader (FLIPR). The figure in % activation is based on the Ca^2+ signal after addition of Lys-Des-Arg^9-bradykinin (0.5 nM) or Des-Arg^9-bradykinin (100 nM). Antagonists lead to a suppression of the Ca^2+ inflow after addition of the agonist. % inhibition compared with the maximum achievable inhibition is stated.
(§2) The agonistic or antagonistic action of substances can be determined on the bradykinin 1 receptor (B1R) of humans and rats by means of a cell-based flourescent calcium-mobilization assay. According to this assay agonist-induced increase of intracellular free Ca^2+ is quantified by means of a Ca^2+-sensitive dye (Fluo-4 type, Molecular Probes Europe BV, Leiden, Netherlands), in a Fluorescent Imaging Plate Reader (FLIPR, Molecular Devices, Sunnyvale, USA) and/or the Novostar (BMG Labtech GmbH, Offenburg, Germany).
(§3) Chinese hamster ovary cells (CHO K1 cells), which are stably transfected with the human B1R gene (hB1R cells) or with the B1R gene of rats (rB1R cells), are used. For functional investigations these cells are seeded into black 96-well plates with a clear bottom (BD Biosciences, Heidelberg, Germany or Greiner, Frickenhausen, Germany) in a density of 20,000-35,000 cells/well. The cells are incubated overnight in a humidified atmosphere at 37° C. and 5% CO2 in culture medium (hB1R cells: Nutrient Mixture Ham's F12, Gibco Invitrogen GmbH, Karlsruhe, Germany or DMEM, Sigma-Aldrich, Taufkirchen, Germany; rB1R cells: D-MEM/F12, Gibco Invitrogen GmbH, Karlsruhe, Germany) with 10 vol. % FBS (foetal bovine serum, Gibco Invitrogen GmbH, Karlsruhe, Germany).
(§4) On the following day the cells are loaded with the Ca^2+-sensitive dye Fluo-4-AM (Molecular Probes Europe BV, Leiden, Netherlands):
(§5) Method A: The medium of the cells is removed and cell plates are incubated with loading solution, which contains 2.13 μM Fluo-4-AM, 2.5 mM probenecid (Sigma-Aldrich, Taufkirchen, Germany), and 10 mM HEPES (Sigma-Aldrich, Taufkirchen, Germany) in HBSS buffer (Hank's buffered saline solution, Gibco Invitrogen GmbH, Karlsruhe, Germany) for 60 minutes at 37° C. After the plates are washed twice with HBSS buffer, HBSS buffer supplemented 0.1% BSA (bovine serum albumin; Sigma-Aldrich, Taufkirchen, Germany), 5.6 mM glucose and 0.05% gelatine (Merck KGaA, Darmstadt, Germany) is added. Cell plates are incubated for at least 20 minutes in the dark at room temperature before they are used for the Ca^2+ measurement in the FLIPR or Novostar.
(§6) Method B: The plates are washed with buffer A (15 mM HEPES, 80 mM NaCl, 5 mM KCl, 1.2 mM CaCl2, 0.7 mM MgSO4, 2 mg/ml glucose, 2.5 mM probenecid) and subsequently loaded with buffer A containing 2.4 μM Fluo-4-AM and 0.025% pluronic F127 (Sigma-Aldrich, Taufkirchen, Germany) for 60 minutes at 37° C. Cell plates are washed twice with buffer A. Then, buffer A supplemented with 0.05% BSA and 0.05% gelatine is added and cell plates are incubated in the dark at room temperature for at least 20 minutes before measurement in the FLIPR or Novostar is started.
(§7) The Ca^2+-dependent fluorescence is measured both before and after the addition of substances (λex=488 nm, λem=540 nm). For quantification of the effect the highest fluorescence intensity (FC, fluorescence counts) over time is given. The FLIPR protocol consists of two substance additions, done within the instrument while continuously monitoring the Ca^2+-dependent fluorescence at 540 nm. When the Novostar was used, one addition had to be done outside the instrument. Test substances (10 μM) are initially pipetted onto the cells and the intracellular Ca^2+ rise is compared with the control (hB1R: Lys-Des-Arg9-bradykinin>=50 nM; rB1R: Des-Arg9-bradykinin>=1 μM). […]

B1R of rats = molecular target: T2, B1R of rats (Rattus norvegicus, UniProt P97583); experiment: Functional investigation on the bradykinin 1 receptor (B1R), cell-based fluorescent calcium-mobilization assay (FLIPR/Novostar), rat; settings: 10 μM test substance; CHO K1 cells stably transfected with rat B1R gene; agonist Des-Arg9-bradykinin at EC80; % inhibition compared with maximum achievable inhibition; read-out: B1R antagonism, rat [10 μM] % inhibition
T2 construct: expressed in transfected cells; host or cells: CHO K1 cells
T2 sequence (P97583 1-337): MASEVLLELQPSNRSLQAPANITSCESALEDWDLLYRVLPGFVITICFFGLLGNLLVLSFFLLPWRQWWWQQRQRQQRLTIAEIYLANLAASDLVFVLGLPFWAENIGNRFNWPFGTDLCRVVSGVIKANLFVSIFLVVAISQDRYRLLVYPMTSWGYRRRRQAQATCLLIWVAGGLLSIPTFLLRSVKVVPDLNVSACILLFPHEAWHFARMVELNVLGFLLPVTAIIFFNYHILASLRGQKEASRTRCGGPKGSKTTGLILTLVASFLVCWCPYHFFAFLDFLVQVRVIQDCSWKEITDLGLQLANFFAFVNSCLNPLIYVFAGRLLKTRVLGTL
Procedure: as §1, §2, §3, §4, §5, §6, §7

SMILES	inhibition at 10 µM (human B1R) [%]	inhibition at 10 µM (B1R of rats) [%]
CC(=O)NCC1(N2CCN(c3ccncc3)CC2)CCN(C(=O)CCC2CCCCN2S(=O)(=O)c2cc(C)c(Cl)cc2C)CC1 (stereo not shown) [Example 11, N-((1-(3-(1-(4-chloro-2,5-dimethylphenylsulfonyl)piperidin-2-yl)propanoyl)-4-(4-(pyridin-4-yl)piperazin-1-yl)piperidin-4-yl)methyl)acetamide]	102	75
Cc1cccc(Cl)c1S(=O)(=O)N1c2ccccc2OCC1COCC(=O)N1CCC(CNC(=O)c2ccncc2)(N2CCN(C)CC2)CC1 (stereo not shown) [Example 50, N-((1-(2-((4-(2-Chloro-6-methylphenylsulfonyl)-3,4-dihydro-2H-benzo[b][1,4]oxazin-3-yl)methoxy)acetyl)-4-(4-methylpiperazin-1-yl)piperidin-4-yl)methyl)isonicotinamide]	96	102
Cc1cc(S(=O)(=O)N2CCCCC2CCC(=O)N2CCC(CNC(=O)Cc3ccccc3)(N3CCN(C)CC3)CC2)c(C)cc1Cl (stereo not shown) [Example 10, N-((1-(3-(1-(4-chloro-2,5-dimethylphenylsulfonyl)piperidin-2-yl)propanoyl)-4-(4-methylpiperazin-1-yl)piperidin-4-yl)methyl)-2-phenylacetamide]	101	39
CN1CCN(C2(CNC(=O)Cc3ccccc3)CCN(C(=O)CC(NS(=O)(=O)c3ccc4ccccc4c3)c3ccccc3)CC2)CC1 (stereo not shown) [Example 8, N-((4-(4-methylpiperazin-1-yl)-1-(3-(naphthalene-2-sulfonamido)-3-phenylpropanoyl)piperidin-4-yl)methyl)-2-phenylacetamide]	75	29
COc1cc(C)c(S(=O)(=O)N(C)CCOCC(=O)N2CCC(CNC(C)=O)(N3CCN(C)CC3)CC2)c(C)c1 [Example 31, N-((1-(2-(2-(4-methoxy-N,2,6-trimethylphenylsulfonamido)ethoxy)acetyl)-4-(4-methylpiperazin-1-yl)piperidin-4-yl)methyl)acetamide]	103	101
CC(=O)NCC1(N2CCN(C)CC2)CCN(C(=O)COCC2CCc3ccccc3N2S(=O)(=O)c2ccc(Cl)c(Cl)c2)CC1 (stereo not shown) [Example 7, N-((1-(2-((1-(3,4-dichlorophenylsulfonyl)-1,2,3,4-tetrahydroquinolin-2-yl)methoxy)acetyl)-4-(4-methylpiperazin-1-yl)piperidin-4-yl)methyl)acetamide]	102	105
COc1cc(C)c(S(=O)(=O)N(C)CCOCC(=O)N2CCC(CNC(=O)c3ccccn3)(N3CCN(C)CC3)CC2)c(C)c1 [Example 25, N-((1-(2-(2-(4-methoxy-N,2,6-trimethylphenylsulfonamido)ethoxy)acetyl)-4-(4-methylpiperazin-1-yl)piperidin-4-yl)methyl)picolinamide]	103	101
CN1CCN(C2(CNC(=O)c3cccnc3)CCN(C(=O)CC3CCCCN3S(=O)(=O)c3cccc(C(F)(F)F)c3)CC2)CC1 (stereo not shown) [Example 39, N-((4-(4-methylpiperazin-1-yl)-1-(2-(1-(3-(trifluoromethyl)phenylsulfonyl)-piperidin-2-yl)acetyl)piperidin-4-yl)methyl)nicotinamide]	11	94
COc1cc(C)c(S(=O)(=O)N2CCCCC2COCC(=O)N2CCC(CNC(C)=O)(N3CCN(C)CC3)CC2)c(C)c1 (stereo not shown) [Example 27, N-((1-(2-((1-(4-methoxy-2,6-dimethylphenylsulfonyl)piperidin-2-yl)methoxy)acetyl)-4-(4-methylpiperazin-1-yl)piperidin-4-yl)methyl)acetamide]	103	102
COc1cc(C)c(S(=O)(=O)N(C)CCOCC(=O)N2CCC(CNC(=O)c3ccccc3)(N3CCN(C)CC3)CC2)c(C)c1 [Example 24, N-((1-(2-(2-(4-methoxy-N,2,6-trimethylphenylsulfonamido)ethoxy)acetyl)-4-(4-methylpiperazin-1-yl)piperidin-4-yl)methyl)benzamide]	103	101
COc1cc(C)c(S(=O)(=O)N(CCOCC(=O)N2CCC(CN3Cc4ccccc4C3=O)(N3CCN(C4CC4)CC3)CC2)C2CC2)c(C)c1 [Example 42, N-Cyclopropyl-N-(2-(2-(4-(4-cyclopropylpiperazin-1-yl)-4-((1-oxoisoindolin-2-yl)methyl)piperidin-1-yl)-2-oxoethoxy)ethyl)-4-methoxy-2,6-dimethylbenzenesulfonamide]	97	96
CN1CCN(C2(CNC(=O)c3ccccc3)CCN(C(=O)COCC3CCc4ccccc4N3S(=O)(=O)c3ccc(Cl)c(Cl)c3)CC2)CC1 (stereo not shown) [Example 23, N-((1-(2-((1-(3,4-dichlorophenylsulfonyl)-1,2,3,4-tetrahydroquinolin-2-yl)methoxy)acetyl)-4-(4-methylpiperazin-1-yl)piperidin-4-yl)methyl)benzamide]	99	54
Cc1cc(S(=O)(=O)N2CCCCC2CCC(=O)N2CCC(CNC(=O)c3ccncc3)(N3CCN(C)CC3)CC2)c(C)cc1Cl (stereo not shown) [Example 26, N-((1-(3-(1-(4-chloro-2,5-dimethylphenylsulfonyl)piperidin-2-yl)propanoyl)-4-(4-methylpiperazin-1-yl)piperidin-4-yl)methyl)isonicotinamide]	103	45
COc1cc(C)c(S(=O)(=O)N(C)CCOCC(=O)N2CCC(CNC(C)=O)(N3CCN(c4ccncc4)CC3)CC2)c(C)c1 [Example 41, N-((1-(2-(2-(4-methoxy-N,2,6-trimethylphenylsulfonamido)ethoxy)acetyl)-4-(4-(pyridin-4-yl)piperazin-1-yl)piperidin-4-yl)methyl)acetamide]	100	102
